In assay [1] the target is SUMO-activating enzyme (Homo sapiens, UniProt Q9UBT2). Briefly: SUMOylation inhibitor hit validation, confirmation, SUMOylation inhibitor project, biochemical, AlphaScreen (AID 2018). The class given is functional. For orientation: Alpha assays give light when donor and acceptor beads are brought close together.
Assay [2] has as its target Beta Lactamase (Pseudomonas aeruginosa, UniProt Q932Y6). Briefly: beta-lactamase reporter inhibitor potency, dose response, artefact control for TLR9-MyD88 binding inhibitor project, BLA reporter cells, FRET fluorescence (AID 588341).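 Note: cell based assay in CHO-K1 cells stably expressing beta-lactamase.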 The assay is classed as cell-based.
In assay [3] the target is T1, Runt-related transcription factor 1/Core-binding factor subunit beta (Homo sapiens, UniProt Q01196+Q13951). Kind of assay: inhibitors of RUNX1 Runt–CBFb-SMMHC binding, primary screen, biochemical, FRET, Cerulean-Runt, Venus-CBFb-SMMHC, uHTS (AID 1434).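 Note: partner is the CBFb-SMMHC leukemia fusion protein rather than wild-type CBFb.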 The class given is protein assay.
T1 sequence (Q01196 whole entry, the tested form may be a part): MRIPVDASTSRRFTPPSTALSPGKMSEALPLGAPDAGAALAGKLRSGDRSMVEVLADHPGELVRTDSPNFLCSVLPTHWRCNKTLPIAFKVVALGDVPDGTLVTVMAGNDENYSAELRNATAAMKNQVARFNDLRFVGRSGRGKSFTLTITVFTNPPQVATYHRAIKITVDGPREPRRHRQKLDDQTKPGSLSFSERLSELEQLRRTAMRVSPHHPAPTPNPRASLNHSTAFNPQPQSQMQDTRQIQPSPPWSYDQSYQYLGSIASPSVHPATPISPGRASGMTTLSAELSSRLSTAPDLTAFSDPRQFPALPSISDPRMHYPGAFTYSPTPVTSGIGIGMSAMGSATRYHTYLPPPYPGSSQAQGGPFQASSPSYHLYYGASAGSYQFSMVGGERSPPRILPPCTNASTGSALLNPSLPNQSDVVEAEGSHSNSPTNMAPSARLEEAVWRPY
T1 sequence (Q13951 whole entry, the tested form may be a part): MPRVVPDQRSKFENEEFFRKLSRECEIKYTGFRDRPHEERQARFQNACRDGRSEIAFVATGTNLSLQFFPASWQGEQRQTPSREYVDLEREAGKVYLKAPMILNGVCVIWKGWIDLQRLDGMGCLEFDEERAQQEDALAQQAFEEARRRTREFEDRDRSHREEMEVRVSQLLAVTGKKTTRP
Assay [4] has as its target T2, Microphthalmia-associated transcription factor (Homo sapiens, UniProt O75030).
T2 sequence (O75030 whole entry): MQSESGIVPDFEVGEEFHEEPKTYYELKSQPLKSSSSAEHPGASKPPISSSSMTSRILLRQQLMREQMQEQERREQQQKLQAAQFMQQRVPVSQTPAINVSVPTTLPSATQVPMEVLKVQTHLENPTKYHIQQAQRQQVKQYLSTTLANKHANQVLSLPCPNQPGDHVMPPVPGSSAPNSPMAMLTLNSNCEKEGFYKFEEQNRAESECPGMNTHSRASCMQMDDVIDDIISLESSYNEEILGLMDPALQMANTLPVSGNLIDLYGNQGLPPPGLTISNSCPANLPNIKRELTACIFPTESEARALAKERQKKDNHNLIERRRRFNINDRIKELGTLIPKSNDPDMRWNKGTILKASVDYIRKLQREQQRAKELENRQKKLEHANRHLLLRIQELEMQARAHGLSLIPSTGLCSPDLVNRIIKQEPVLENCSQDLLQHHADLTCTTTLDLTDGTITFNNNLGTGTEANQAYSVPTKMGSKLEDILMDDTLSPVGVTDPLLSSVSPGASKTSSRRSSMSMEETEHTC
Briefly: TRPM1 promoter luciferase signal decrease, dose response, MITF inhibitor project, cell-based, SK-MEL-5, cherry-picked, set 3 (AID 493073).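 Note: SK-MEL-5 melanoma cells with luciferase driven by the MITF target TRPM1 promoter.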 The assay is classed as functional.

Assay [5] in a line: growth suppression of PTEN-null colon cells, dose response, cell-based, HCT116 PTEN knockout (AID 1047).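 Note: HCT116 colon tumor cells with PTEN knocked out; cells exposed to compound for 60 hours before readout; potency for loss of cell viability measured by luminescence.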 The class given is functional.
The target in assay [6] is Kallikrein-7 (Homo sapiens, UniProt P49862). Kind of assay: Fluorescence Intensity-based biochemical primary high throughput dose response assay to identify activators of kallikrein-7 (K7) zymogen.
Sequence of Kallikrein-7 (P49862 whole entry): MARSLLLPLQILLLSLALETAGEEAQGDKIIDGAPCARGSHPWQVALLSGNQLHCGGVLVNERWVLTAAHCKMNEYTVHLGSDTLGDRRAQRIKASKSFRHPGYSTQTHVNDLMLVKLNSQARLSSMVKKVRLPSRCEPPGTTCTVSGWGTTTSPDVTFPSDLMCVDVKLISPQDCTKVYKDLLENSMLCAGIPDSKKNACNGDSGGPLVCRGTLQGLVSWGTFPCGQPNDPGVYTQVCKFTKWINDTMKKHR
Assay [7] has as its target T1, Runt-related transcription factor 1/Core-binding factor subunit beta. Kind of assay: inhibitors of RUNX1 Runt–CBFb-SMMHC binding, biochemical, TR-FRET (AID 1438). The assay is classed as protein assay.
Assay [8] can be described thus: growth suppression of beta-catenin-knockout colon cells, dose response, cell-based, HCT116, human colon tumor (AID 1045).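 Note: HCT116 colon tumor cells with beta catenin knocked out; cells exposed to compound for 60 hours.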 The class given is functional.
For assay [9], the system named is CHO. Kind of assay: cytotoxicity in TLR9-MyD88 CHO cells, dose response, cytotoxicity control for TLR9-MyD88 binding inhibitor project, cell-based, luminescence (AID 588339).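 Note: CHO cells stably coexpressing TLR9 and MyD88 fusions from primary screen; compound exposure lasted 48 hours before viability readout.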 The class given is functional, hamster. The settings on record: Cricetulus griseus.
For assay [10], the target named is T3, Cannabinoid receptor 1 (Homo sapiens, UniProt P21554). Kind of assay: SAR analysis of antagonists of the Cannabinoid Receptor 1 using an Image-Based Assay - Set 4. [Related pubchem assays (depositor defined):AID2013, AID2026]. The assay is classed as functional.
T3 sequence (P21554 whole entry): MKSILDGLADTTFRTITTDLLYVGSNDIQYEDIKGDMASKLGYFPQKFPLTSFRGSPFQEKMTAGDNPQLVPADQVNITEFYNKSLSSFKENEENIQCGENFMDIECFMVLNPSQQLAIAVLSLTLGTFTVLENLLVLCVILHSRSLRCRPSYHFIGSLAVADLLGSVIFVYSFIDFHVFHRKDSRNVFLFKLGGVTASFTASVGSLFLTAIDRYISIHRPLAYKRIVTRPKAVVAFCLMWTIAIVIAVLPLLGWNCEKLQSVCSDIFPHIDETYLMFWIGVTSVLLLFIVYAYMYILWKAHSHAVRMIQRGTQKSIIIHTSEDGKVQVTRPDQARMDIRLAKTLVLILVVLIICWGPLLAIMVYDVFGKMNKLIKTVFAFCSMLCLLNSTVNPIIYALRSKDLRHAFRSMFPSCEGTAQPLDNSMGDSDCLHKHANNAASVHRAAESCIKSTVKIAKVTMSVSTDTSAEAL
In assay [11] the target is T3, Cannabinoid receptor 1. Kind of assay: SAR analysis of agonists of the Cannabinoid Receptor 1 using an Image-Based Assay - Set 4. [Related pubchem assays (depositor defined):AID2013, AID2026]. The assay is classed as functional.
Assay [12] addresses G-protein coupled receptor 55 (Homo sapiens, UniProt Q9Y2T6). Kind of assay: SAR Analysis of Selective Antagonists of GPR55 using an Image-Based Assay - Set 4. [Related pubchem assays (depositor defined):AID2013, AID2026]. The assay is classed as functional.
Assay [13] has as its target T4, Cannabinoid receptor 2 (Homo sapiens, UniProt P34972). Kind of assay: SAR analysis of agonists of the Cannabinoid Receptor 2 using an Image-Based Assay - Set 3. [Related pubchem assays (depositor defined):AID2013, AID2026]. The assay is classed as functional.
Assay [14] deals with T5, G-protein coupled receptor 35 (Homo sapiens, UniProt Q9HC97). Kind of assay: SAR analysis of Antagonists of the GPR35 Receptor using an Image-Based Assay - Set 6. [Related pubchem assays (depositor defined):AID2013, AID2026]. The assay is classed as functional.
T5 sequence (Q9HC97 whole entry): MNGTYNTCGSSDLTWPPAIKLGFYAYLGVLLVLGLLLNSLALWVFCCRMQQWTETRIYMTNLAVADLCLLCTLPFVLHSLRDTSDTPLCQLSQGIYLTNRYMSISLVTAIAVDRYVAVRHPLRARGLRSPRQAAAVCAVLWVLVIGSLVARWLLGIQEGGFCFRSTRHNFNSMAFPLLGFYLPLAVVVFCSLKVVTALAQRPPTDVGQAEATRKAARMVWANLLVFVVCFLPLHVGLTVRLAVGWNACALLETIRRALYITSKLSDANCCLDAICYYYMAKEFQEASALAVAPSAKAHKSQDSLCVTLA
In assay [15] the target is T4, Cannabinoid receptor 2. Kind of assay: SAR analysis of antagonists of the Cannabinoid Receptor 2 using an Image-Based Assay - Set 3. [Related pubchem assays (depositor defined):AID2013, AID2026]. The assay is classed as functional.
Assay [16] concerns the target T5, G-protein coupled receptor 35. Briefly: SAR analysis of Agonists of the GPR35 Receptor using an Image-Based Assay - Set 4. [Related pubchem assays (depositor defined):AID2013, AID2026]. The class given is functional.
Assay [17] has as its target Cytochrome P450 2D6 (Homo sapiens, UniProt P10635).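 Note: CYP2D6 member of a cytochrome P450 panel assay.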
The target of assay [18] is Cytochrome P450 2C19 (Homo sapiens, UniProt P33261). Kind of assay: Cytochrome panel assay with activity outcomes. Panel member name: p450-cyp2c19 Compounds with AC50 equal or less than 10 uM are considered active. The class given is functional. The settings on record: read-out: AC50.
Assay [19] has as its target Lysosomal acid glucosylceramidase (Homo sapiens, UniProt P04062). Kind of assay: Dose response cell-based high throughput screening assay to identify enhancers of beta-glucosidase activity. [Related pubchem assays: 784 ]. The assay is classed as functional.
For assay [20], the target named is T6, Coagulation factor XII (Homo sapiens, UniProt P00748).
T6 sequence (P00748 whole entry): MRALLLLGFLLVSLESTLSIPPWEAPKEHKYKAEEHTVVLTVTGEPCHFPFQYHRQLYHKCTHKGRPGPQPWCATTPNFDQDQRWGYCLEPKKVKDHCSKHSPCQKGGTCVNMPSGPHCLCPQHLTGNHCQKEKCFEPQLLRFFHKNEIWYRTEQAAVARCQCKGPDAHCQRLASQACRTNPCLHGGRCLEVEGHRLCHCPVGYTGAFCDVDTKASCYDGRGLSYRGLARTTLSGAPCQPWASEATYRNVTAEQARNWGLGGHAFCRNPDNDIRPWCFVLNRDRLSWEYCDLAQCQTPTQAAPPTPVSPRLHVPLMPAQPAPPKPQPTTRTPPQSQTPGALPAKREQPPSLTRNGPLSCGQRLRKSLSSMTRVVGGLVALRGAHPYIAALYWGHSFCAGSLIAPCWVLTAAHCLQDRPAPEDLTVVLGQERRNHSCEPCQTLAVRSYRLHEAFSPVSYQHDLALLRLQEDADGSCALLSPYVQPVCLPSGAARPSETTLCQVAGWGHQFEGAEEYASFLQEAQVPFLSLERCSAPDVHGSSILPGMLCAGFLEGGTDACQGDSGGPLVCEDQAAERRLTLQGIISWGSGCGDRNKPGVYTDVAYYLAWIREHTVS
Briefly: Factor XIIa Dose Response Confirmation from Single Well HTS. [Related pubchem assays (depositor defined):AID701]. The assay is classed as functional.

The target in assay [21] is Mitogen-activated protein kinase 10 (Homo sapiens, UniProt P53779). Kind of assay: Dose response biochemical screening assay for inhibitors of c-Jun N-Terminal Kinase 3 (JNK3). [Related pubchem assays: 746 ].
Assay [22] has as its target T7, Type-1 angiotensin II receptor (Homo sapiens, UniProt P30556).
T7 sequence (P30556 whole entry): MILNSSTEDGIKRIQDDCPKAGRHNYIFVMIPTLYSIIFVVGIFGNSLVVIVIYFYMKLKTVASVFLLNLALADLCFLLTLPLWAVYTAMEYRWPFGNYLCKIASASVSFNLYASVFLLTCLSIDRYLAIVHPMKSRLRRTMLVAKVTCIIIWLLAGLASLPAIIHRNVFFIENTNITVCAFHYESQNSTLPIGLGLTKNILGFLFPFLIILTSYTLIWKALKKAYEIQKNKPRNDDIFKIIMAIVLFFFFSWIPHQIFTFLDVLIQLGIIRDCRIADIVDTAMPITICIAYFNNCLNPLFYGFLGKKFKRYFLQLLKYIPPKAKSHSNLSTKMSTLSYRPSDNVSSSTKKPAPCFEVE
Kind of assay: AT1 receptor agonists, dose response, selectivity assay for APJ receptor agonist project, cell-based, uHTS hits (AID 488865).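 Note: beta-arrestin recruitment to AT1 measured by enzyme fragment complementation luminescence.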 The class given is functional.

Assay [23] deals with T8, E3 ubiquitin-protein ligase XIAP (Homo sapiens, UniProt P98170). Briefly: XIAP antagonists, biochemical, IAP family, fluorescence polarization (AID 1018). The assay is classed as functional. A general note: Polarisation of emitted light reports the rotation of a fluorescent probe.
T8 sequence (P98170 whole entry): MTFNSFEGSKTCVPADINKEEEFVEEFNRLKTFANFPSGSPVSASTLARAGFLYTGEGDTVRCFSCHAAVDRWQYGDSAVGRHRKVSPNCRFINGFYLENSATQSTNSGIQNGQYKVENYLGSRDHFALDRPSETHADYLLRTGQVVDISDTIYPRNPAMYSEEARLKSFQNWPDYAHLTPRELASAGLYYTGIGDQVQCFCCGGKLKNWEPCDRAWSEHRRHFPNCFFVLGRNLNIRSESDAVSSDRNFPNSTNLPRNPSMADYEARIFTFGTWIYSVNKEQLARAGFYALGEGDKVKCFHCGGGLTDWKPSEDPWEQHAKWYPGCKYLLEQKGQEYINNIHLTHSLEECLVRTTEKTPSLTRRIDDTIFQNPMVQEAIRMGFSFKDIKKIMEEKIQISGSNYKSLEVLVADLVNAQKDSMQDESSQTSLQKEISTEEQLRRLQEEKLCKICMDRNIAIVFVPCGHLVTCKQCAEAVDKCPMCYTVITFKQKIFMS
The target in assay [24] is T8, E3 ubiquitin-protein ligase XIAP. Kind of assay: Counter Screen using XIAP-Bir3 for Chemical Antagonists of Bir1/2 domains of IAP-family anti-apoptotic proteins. [Related pubchem assays (depositor defined):AID1018, AID1449, AID1514, AID1638, AID1749, AID1750, AID488957, AID488963]. A general note: Counterscreens check selectivity or assay interference.
Assay [25] addresses T9, Kappa-type opioid receptor (Homo sapiens, UniProt P41145). Kind of assay: SAR analysis of small molecule antagonists of the kappa opioid receptor via a luminescent beta-arrestin assay - Set 3. [Related pubchem assays (depositor defined):AID1777, AID1778, AID1785, AID1786, AID1966, AID2133, AID2136, AID2285, AID2495]. The assay is classed as functional.
For assay [26], the target named is T9, Kappa-type opioid receptor. Briefly: SAR analysis of small molecule antagonists of the kappa opioid receptor via a luminescent beta-arrestin assay - Set 6. [Related pubchem assays (depositor defined):AID1777, AID1778, AID1785, AID1786, AID1966, AID2133, AID2136, AID2285]. The assay is classed as functional.
Assay [27] has as its target Mu-type opioid receptor (Homo sapiens, UniProt P35372). Kind of assay: SAR Analysis of Antagonists of the MOR Receptor using an Image-Based Assay - Set 3. [Related pubchem assays (depositor defined):AID1777, AID1785, AID1786, AID1966, AID2133, AID2136, AID2284, AID2285, AID2420]. The class given is functional.
Assay [28] has as its target Delta-type opioid receptor (Homo sapiens, UniProt P41143). Kind of assay: SAR Analysis of Antagonists of the DOR Receptor using an Image-Based Assay - Set 3. [Related pubchem assays (depositor defined):AID1777, AID1785]. The class given is functional.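 Note: U2OS cells expressing DOR1 and beta-arrestin GFP stimulated with 100 nM SNC80; imaging of GFP-tagged beta-arrestin moving into spots after receptor activation.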
Assay [29] has as its target T9, Kappa-type opioid receptor. Kind of assay: SAR analysis of Antagonists of the Kappa Opioid Receptor (KOR) using an Image-Based Assay - Set 4. [Related pubchem assays (depositor defined):AID1777, AID1785]. The assay is classed as functional.
In assay [30] the target is Voltage-dependent T-type calcium channel subunit alpha-1H (Homo sapiens, UniProt O95180). Kind of assay: Cav3.2 T-type channel inhibitors, synthesized analogs, SAR follow-up, cell-based, synthetic library set 2, HEK293 HH8, Fluo-4 (AID 493023). The assay is classed as functional.

Molecules are shown by their SMILES. The source made the active and inactive calls.

T9 sequence (P41145 whole entry): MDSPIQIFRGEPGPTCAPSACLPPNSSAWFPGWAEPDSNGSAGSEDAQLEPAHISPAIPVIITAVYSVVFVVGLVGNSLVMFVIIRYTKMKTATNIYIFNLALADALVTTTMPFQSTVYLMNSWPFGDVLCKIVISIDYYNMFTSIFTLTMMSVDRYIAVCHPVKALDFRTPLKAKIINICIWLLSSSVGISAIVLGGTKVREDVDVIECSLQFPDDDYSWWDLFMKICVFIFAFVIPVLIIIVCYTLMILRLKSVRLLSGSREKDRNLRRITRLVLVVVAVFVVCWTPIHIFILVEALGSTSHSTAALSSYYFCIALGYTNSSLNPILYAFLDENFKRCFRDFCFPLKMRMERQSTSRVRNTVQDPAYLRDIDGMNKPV
T4 sequence (P34972 whole entry): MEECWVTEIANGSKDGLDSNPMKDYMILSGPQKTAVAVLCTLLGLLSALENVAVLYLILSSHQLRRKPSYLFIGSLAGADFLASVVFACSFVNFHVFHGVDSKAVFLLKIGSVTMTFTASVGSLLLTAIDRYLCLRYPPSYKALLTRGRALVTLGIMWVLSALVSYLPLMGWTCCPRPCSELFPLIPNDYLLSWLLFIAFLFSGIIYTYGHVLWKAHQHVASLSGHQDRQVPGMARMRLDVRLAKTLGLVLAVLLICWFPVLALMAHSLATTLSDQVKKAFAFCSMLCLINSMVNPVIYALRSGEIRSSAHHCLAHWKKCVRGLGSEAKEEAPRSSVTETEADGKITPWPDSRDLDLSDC
Sequence of Beta Lactamase (Q932Y6 whole entry, the tested form may be a part): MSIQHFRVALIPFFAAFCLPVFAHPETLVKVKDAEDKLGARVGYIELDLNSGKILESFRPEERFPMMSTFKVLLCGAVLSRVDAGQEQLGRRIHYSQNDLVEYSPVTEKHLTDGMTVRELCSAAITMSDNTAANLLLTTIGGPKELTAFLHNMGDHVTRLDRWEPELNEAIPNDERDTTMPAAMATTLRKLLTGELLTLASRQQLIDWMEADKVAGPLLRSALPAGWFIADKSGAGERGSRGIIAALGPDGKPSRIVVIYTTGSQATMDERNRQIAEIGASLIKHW
Sequence of Cytochrome P450 2D6 (P10635 whole entry): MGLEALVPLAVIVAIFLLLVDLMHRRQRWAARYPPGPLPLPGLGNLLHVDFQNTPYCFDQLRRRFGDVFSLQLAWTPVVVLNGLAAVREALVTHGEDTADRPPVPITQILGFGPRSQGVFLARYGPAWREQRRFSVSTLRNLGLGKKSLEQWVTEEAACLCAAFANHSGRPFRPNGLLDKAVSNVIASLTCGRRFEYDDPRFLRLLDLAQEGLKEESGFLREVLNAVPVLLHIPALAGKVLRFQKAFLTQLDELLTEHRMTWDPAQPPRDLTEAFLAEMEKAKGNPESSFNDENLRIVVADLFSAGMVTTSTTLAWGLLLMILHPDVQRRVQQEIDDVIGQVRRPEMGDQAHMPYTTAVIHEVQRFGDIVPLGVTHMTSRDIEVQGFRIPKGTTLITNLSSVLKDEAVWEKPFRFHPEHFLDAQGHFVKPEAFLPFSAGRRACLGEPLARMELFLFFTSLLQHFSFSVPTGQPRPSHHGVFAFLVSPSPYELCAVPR
Sequence of Delta-type opioid receptor (P41143 whole entry): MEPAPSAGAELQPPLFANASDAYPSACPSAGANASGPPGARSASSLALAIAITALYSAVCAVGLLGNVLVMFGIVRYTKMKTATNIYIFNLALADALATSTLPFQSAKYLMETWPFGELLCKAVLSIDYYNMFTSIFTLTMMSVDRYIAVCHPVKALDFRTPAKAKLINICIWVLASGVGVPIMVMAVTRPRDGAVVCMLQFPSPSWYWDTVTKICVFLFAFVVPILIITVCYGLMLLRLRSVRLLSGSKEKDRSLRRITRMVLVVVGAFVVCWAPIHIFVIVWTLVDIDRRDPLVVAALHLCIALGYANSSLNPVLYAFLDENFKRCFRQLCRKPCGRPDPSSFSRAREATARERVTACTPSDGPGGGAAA
Sequence of G-protein coupled receptor 55 (Q9Y2T6 whole entry): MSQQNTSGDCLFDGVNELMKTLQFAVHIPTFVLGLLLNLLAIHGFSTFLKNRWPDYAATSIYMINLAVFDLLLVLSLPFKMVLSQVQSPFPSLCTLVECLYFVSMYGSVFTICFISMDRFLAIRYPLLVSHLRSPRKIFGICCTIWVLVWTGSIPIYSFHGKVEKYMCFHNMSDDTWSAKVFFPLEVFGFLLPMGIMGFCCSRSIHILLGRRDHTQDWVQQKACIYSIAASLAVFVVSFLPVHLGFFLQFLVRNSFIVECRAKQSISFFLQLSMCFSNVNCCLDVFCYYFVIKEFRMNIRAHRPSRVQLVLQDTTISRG
Sequence of Mu-type opioid receptor (P35372 whole entry): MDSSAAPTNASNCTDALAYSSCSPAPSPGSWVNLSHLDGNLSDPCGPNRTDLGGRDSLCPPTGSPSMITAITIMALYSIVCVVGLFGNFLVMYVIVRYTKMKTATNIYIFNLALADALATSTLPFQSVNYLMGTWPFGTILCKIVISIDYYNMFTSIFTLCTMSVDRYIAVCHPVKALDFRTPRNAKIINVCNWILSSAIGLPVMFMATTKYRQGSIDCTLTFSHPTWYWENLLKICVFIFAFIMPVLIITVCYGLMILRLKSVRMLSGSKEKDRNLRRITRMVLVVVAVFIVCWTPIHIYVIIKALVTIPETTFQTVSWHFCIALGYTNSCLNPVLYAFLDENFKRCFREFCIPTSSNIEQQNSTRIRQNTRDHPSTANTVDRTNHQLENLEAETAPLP

Turning to `COc1ccc(NC2=NC(=O)/C(=C\c3ccco3)S2)cc1`, the IC50 in assay [1] is 9.8 µM (active).

Consider `OCCNc1c2ccccc2nc2c(F)c(F)c(F)c(F)c12`, for which the IC50 in [2] was 2.27 µM (active); in assay [3] it was 38.7 µM (active); in [7], > 100 µM (inactive); in [9], 3.97 µM (active). In assay [4], the AC50 is 4.14 µM (active). The EC50 is 3.83 µM (active) in assay [5], > 69.5 µM (inactive) in [6] and 2.16 µM (active) in [8].

Regarding `N=c1c(C(=O)NC2CCCC2)cc2c(=O)n3ccccc3nc2n1C1CCCC1`, the IC50 in assay [10], in assay [12], in assay [14] and in [15] was > 32 µM (inactive) in each case. For the same compound, the EC50 in assay [11], in assay [13] and in assay [16] was > 32 µM (inactive) throughout. The AC50 in [17] is 3.55 µM (inconclusive); in assay [18], 11.2 µM (inconclusive).

For the compound `COc1ccc(C(=O)n2nc(-c3ccccc3)nc2N)cc1OC`, the EC50 in assay [19] is reported as > 10 µM (not active). Moreover, the IC50 in assay [20] is 2.6 µM (active); in assay [21], 19.2 µM (not active).

Take `CCSc1nc(O)c(CC)c(=O)n1C(C)CC` (stereo not given): the EC50 in assay [22] was > 100 µM (inactive).

As for `Cc1ccc(-c2cc(C(=O)NC3=NCCS3)c3ccccc3n2)cc1C`, the IC50 in [23] is > 100 µM (not active); in assay [24] it was > 100 µM (inactive).

Regarding `Cc1ccnc2c1n1cccc1c(=O)n2CC(=O)NCCCN1CCN(c2ccc3c(c2)OCO3)CC1`, the IC50 in assay [25] was 0.369 µM (active); in [26], 0.482 µM (active); in assay [27], 17.2 µM (inactive); in assay [28], > 32 µM (inactive); in [29], 0.0451 µM (active).

Turning to `O=C(COc1ccc(F)cc1Cl)N[C@H]1CCCN(Cc2ccccc2)C1`, the EC50 in [30] was 10 µM (active).

One may read the IC50 as the concentration needed to halve the response being measured. A word on the AC50: it is the concentration at which the activity in the assay is half-maximal. Broadly, the EC50 is the concentration that produces a half-maximal response.
